Test results: publication PMC11312998, “Molecular Pro-Apoptotic Activities of Flavanone Derivatives in Cyclodextrin Complexes: New Implications for Anticancer Therapy” (International Journal of Molecular Sciences, 2024)
Read-outs that look alike come from different tables or passages of the source.

Experiments:
Ishikawa = experiment: MTT cytotoxicity assay; assay type: cell-based; settings: Homo sapiens
Experimental: (§1) Cell viability was determined using the metabolic microplate spectrophotometric assay with Methylthiazolyl diphenyltetrazolium bromide (MTT), i.e., 3-(4,5-Dimethyl-2-thiazolyl)-2,5-diphenyl-2H-tetrazolium bromide (Sigma-Aldrich; St. Louis, MO, USA). The anticancer activity of the investigated compounds was evaluated in vitro on the basis of their ability to inhibit the proliferation of various cancer cells. The appropriate number of cells for a given cell line (6–8 × 10^3 cells/mL) were seeded into sterile, colorless 96-well microplates. After 24 h of culture, specific wells of the microplate were treated with test compounds (10–200 µmol/L concentration) and incubated in a CO2 incubator for 24 h. The medium was then removed, the cell monolayer was washed twice with sterile PBS solution and fresh culture medium was added to the wells of the microplate.
(§2) After 48 h of cell culture, the MTT test was conducted. In each well of the microplate, 50 µL of tetrazolium salt solution (final concentration 0.05 mg/mL) was added. The microplate was then placed in a CO2 incubator for 3–4 h (depending on the cell line). Following incubation, 100 µL of DMSO (dimethyl sulfoxide, Sigma-Aldrich, St. Louis, MO, USA) was added to the microplate wells to dissolve the purple formazan crystals formed in the environment of living cells. The absorbance of the formazan solution was read at a wavelength of λ = 580 nm and a reference wavelength of λ = 720 nm after gentle mixing (Biotek Power Wave HT, Biotek Instruments, Winooski, VT, USA).
The percentage of live cells was calculated by comparing the absorbance value of the tested samples with that of the control (cells not treated with compounds). Control absorbance was arbitrarily considered to be 100%. […]

[1] = tested on: breast cancer cells (MCF-7, MDA-MB-231 and HCC38) and endometrial cancer cells (Ishikawa, Hec-1-A); experiment: MTT cytotoxicity assay, summary over the cell lines; assay type: cell-based, human; settings: Homo sapiens; range over the five cancer lines; read-out: IC50, range depending on the cancer line
Experimental: as §1, §2
The percentage of live cells was calculated by comparing the absorbance value of the tested samples with that of the control (cells not treated with compounds). Control absorbance was arbitrarily considered to be 100%. […] Moreover, cisplatin (Sigma-Aldrich, St. Louis, MO, USA) was used as a reference compound, and identical incubation conditions were used as described above.

MDA-MB-231 = experiment: Nitric oxide (RNS) generation, DAF-FM diacetate probe; assay type: cell-based, human; settings: IC50 concentration, 24 h
Experimental: Diaminofluorescein-FM diacetate (DAF-FM diacetate, Invitrogen, Carlsbad, CA, USA), is a widely employed cell permeant fluorescent reagent for the detection and quantification of reactive nitrogen species (RNS), particularly nitric oxide (NO). […] However, upon reaction with NO, it undergoes a transformation that yields a highly fluorescent benzotriazole derivative (excitation/emission maxima: λex = 495, λem = 515 nm).
The cells were seeded in black 96-well fluorometric microplates at a density of 10 × 10^3 cells per well. […] After incubation with the compounds, the medium was removed, the cell monolayer in the wells was washed twice with HBSS (140 mM NaCl, 5 mM KCl, 0.8 mM MgCl2, 1.8 mM CaCl2, 1 mM Na2HPO4, 10 mM HEPES and 1% glucose) and 50 μL of DAF-FM diacetate solution in HBSS was added to each well (final probe concentration 5 μmol/L). Cells were incubated with the probe for 30 min in the dark in an incubator (37 °C). After incubation, the probe was removed and replaced with fresh HBSS buffer and then incubated for an additional 30 min to allow for complete de-esterification of the intra cellular diacetates. After this time, the fluorescence was measured. The measurement was performed at the following excitation and fluorescence emission wavelengths: λex = 495 nm/λem = 515 nm. Fluorescence was measured on a Perkin-Elmer LS-5B spectrofluorometer (MA, USA). Fluorescence intensity values for control cells were arbitrarily set as 100%. The results are presented as percentages of control cells calculated on the basis of a comparison of the fluorescence intensity ratio of test samples and controls (100%) (fluorescence of samples was calculated as Δf in relation to the control).

RBCs = experiment: Red blood cells lysis assay; assay type: cell-based, human; settings: 24 h
Experimental: The experiments on human blood were performed in accordance with Polish national guidelines, and the study protocols were approved by the Bioethics Committee of the Medical University of Lodz, Poland: approval no (RNN/104/20/KE). The blood samples were obtained from healthy donors at the Blood Donation Centre in Lodz. The procedure for […] for erythrotoxicity studies is given in a previous paper. The influence of the synthesized compounds, together with a reference compound on RBC membrane integrity, was performed by lysis assay, described elsewhere. Briefly, 2% RBC suspension in 0.9% NaCl was incubated at 37 °C for 24 h with the tested compounds at concentrations of 100 µmol/L, 50 µmol/L, 25 µmol/L, 10 µmol/L and 1 µmol/L. The samples were centrifuged at 3000 rpm for 10 min, and the absorbance of the supernatant was measured at 550 nm. […] A sample containing saline solution represented the spontaneous hemolysis of RBCs (control). The experiments were conducted using at least three different biological materials (n = 3). […] Additionally, erythrocyte morphology was evaluated using a phase contrast Opta-Tech inverted microscope at 400× magnification.

[2] = Isothermal titration calorimetry (ITC) of inclusion complex formation; assay type: physicochemical; settings: DMSO, 25 °C
Experimental: Measurements were carried out using a MicroCal VP-ITC100 microcalorimeter equipped with a 1400 μL measurement cell. All titrations were carried out under isothermal conditions at 25 degrees C in DMSO solution, which was used as a solvent. The mixing speed during the measurements was 351 rpm. The 0.2 mM solution of the ligand (3, 3a and 5) located in the measurement cell was titrated with the cyclodextrin solution located in the syringe. Each measurement consisted of 50 injections of cyclodextrin with a volume of 5 uL and a concentration of 5 mM. The interval between individual injections was 300 s. The effect of direct interaction of the ligand with CD was calculated by subtracting the thermal effects of diluting 5 mM cyclodextrin in a pure solvent. The dilution effect of the 0.2 mM ligand solution was negligible. The results obtained were processed in the MicroCall Origin 7 software. Using a single active site model (ITC Tutorial Guide), the stability constant K of the resulting complex, its stoichiometry n and thermodynamic parameters that describe the ongoing process were determined, viz., enthalpy (ΔH), Gibbs free energy (ΔG) and entropy (ΔS).

[3] = Ishikawa vs HMEC-1, read-out: IC50 in Ishikawa lower than that for HMEC-1, difference
[4] = Ishikawa, 24 h incubation, mean ± SEM, read-out: Cytotoxic effect, IC50
[5] = concentration range of 1–25 µmol/L
[6] = concentrations of 50 µmol/L and 100 µmol/L

SMILES | IC50 (Ishikawa; [3]) [µM] | IC50 (Ishikawa; [4]) [µM] | IC50 [1] [µM] | increase in nitric oxide level (DAF-FM) (MDA-MB-231) | impact on % hemolysis (in words) (RBCs; [5]) | impact on % hemolysis (in words) (RBCs; [6]) | K (formation constant) ([2]; HP-β-cyclodextrin) | n (stoichiometry) ([2]; HP-β-cyclodextrin) | ΔG ([2]; HP-β-cyclodextrin) | ΔH ([2]; HP-β-cyclodextrin) [kcal/mol] | ΔS ([2]; HP-β-cyclodextrin) [J mol^−1K^−1] | K (formation constant) ([2]; α-cyclodextrin) | n (stoichiometry) ([2]; α-cyclodextrin) | ΔG ([2]; α-cyclodextrin) | ΔH ([2]; α-cyclodextrin) [kcal/mol] | ΔS ([2]; α-cyclodextrin) [J mol^−1K^−1] | K (formation constant) ([2]; β-cyclodextrin) | n (stoichiometry) ([2]; β-cyclodextrin) | ΔH ([2]; β-cyclodextrin) [kcal/mol] | ΔS ([2]; β-cyclodextrin) [J mol^−1K^−1] | also measured
O=C1/C(=C/c2ccccc2)COc2ccccc21 [Compound 1] | ~10 | 10.2 ± 1.8 | 10 to 18 | approximately 20% | – | – | – | – | – | – | – | – | – | – | – | – | – | – | – | – | –
COc1cccc(/C=C2/C(=O)c3ccccc3OC2c2ccccc2)c1 (stereo not drawn) [Compound 3] | ~10 | 15.2 ± 1.6 | 15 to 27 | approximately 15% | did not show a statistically significant impact | statistically significant increase in % hemolysis | 6.88 × 10^3 ± 430 | 1.03 ± 0.10 | −21,902.2 J mol^−1 | -0.235 ± 0.0191 | 70.2 | 2.30 × 10^3 ± 180 | 0.90 ± 0.13 | −19,188.6 J mol^−1 | -0.092 ± 0.011 | 63.1 | 3.68 × 10^3 ± 230 | 0.99 ± 0.11 | -0.2476 ± 0.021 | 64.8 | ΔG ([2]; β-cyclodextrin): −20,353.7 J mol^−1
O=C1/C(=C/c2ccccc2)C(c2ccccc2)Oc2ccccc21 (stereo not drawn) [Compound 5] | ~10 | 18.6 ± 4.4 | 18 to 36 | approximately 15% | did not show a statistically significant impact | statistically significant increase in % hemolysis | 5.12 × 10^3 ± 410 | 0.93 ± 0.10 | −21,172.4 J mol^−1 | -0.119 ± 0.0151 | 69.3 | 1.39 × 10^3 ± 120 | 0.83 ± 0.17 | −17,940.2 J mol^−1 | -0.049 ± 0.00741 | 59.5 | 2.32 × 10^3 ± 220 | 0.93 ± 0.11 | -0.0411 ± 0.012 | 62.5 | –
